Reference: patent publication US5198568A, “Compounds useful in enzymatic resolution systems and their preparation” (priority 1991, dated 1993)
Counter-ions that a name gives are not always drawn. Each block holds one compound with its values, some of them ahead of it.

How the values were obtained:
[1] = molecular target: T1, Protease XXVII, Nagarse (Sigma, Enzyme D) (Bacillus amyloliquefaciens, UniProt P00782); test: Homogeneous aqueous enzymatic resolution (ester hydrolysis), Enzyme D; assay type: biochemical; details: 150 mg enzyme D
T1 construct: purchased Sigma
T1 sequence (P00782 108-382): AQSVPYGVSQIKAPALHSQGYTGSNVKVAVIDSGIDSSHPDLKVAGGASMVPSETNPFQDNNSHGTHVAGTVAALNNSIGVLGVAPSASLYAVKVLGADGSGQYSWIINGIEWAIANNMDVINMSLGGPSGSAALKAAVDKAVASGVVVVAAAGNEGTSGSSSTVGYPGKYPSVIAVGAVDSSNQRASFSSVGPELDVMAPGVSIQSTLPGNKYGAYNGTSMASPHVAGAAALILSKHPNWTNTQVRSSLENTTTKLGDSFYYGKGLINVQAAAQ

[2] = test system: Pig Liver Esterase (Sigma E-3128, Enzyme E); test: Homogeneous aqueous enzymatic resolution (ester hydrolysis), Enzyme E; assay type: biochemical; details: 30 mg Pig Liver Esterase (E)
[3] = test system: Protease XXIII from Aspergillus oryzae (Sigma, Enzyme A); test: Homogeneous aqueous enzymatic resolution (ester hydrolysis), Enzyme A; assay type: biochemical
Experimental: No further purification was performed.

[4] = molecular target: T2, Protease VIII, Subtilopeptidase A (subtilisin Carlsberg) (Sigma, Enzyme B) (Bacillus licheniformis, UniProt P00780); test: Homogeneous aqueous enzymatic resolution (ester hydrolysis), Enzyme B; assay type: biochemical; details: for % e.e.: acid product
T2 sequence (P00780 106-379): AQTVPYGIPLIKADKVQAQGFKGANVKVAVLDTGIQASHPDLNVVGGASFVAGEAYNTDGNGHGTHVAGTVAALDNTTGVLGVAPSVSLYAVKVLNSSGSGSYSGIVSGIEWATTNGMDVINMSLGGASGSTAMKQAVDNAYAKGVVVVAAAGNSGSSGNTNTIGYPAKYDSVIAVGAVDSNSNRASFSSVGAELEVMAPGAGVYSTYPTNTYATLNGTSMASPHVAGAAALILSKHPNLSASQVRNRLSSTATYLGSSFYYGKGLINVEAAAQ

[5] = test system: protease Prozyme 6 from Aspergillus oryzae (Amano, Enzyme F); test: Homogeneous aqueous enzymatic resolution (ester hydrolysis), Enzyme F; assay type: biochemical; details: for % CONVERSION: 10 mmol ester in 100 ml 0.2M buffer pH 7.0, 25 C
Experimental: (§1) The enzymatic reaction mixtures were capped and briefly shaken until all the substrate had dissolved, and the enzyme had completely dissolved or dispersed. […] Evaporation of the ether left a white solid. Rotations were measured at c=1 in CHCl3.
as §1
The reaction was started by adding 100 mg of the protease (F) from the fungus Aspergillus oryzae (from Amano Enzyme Corporation, Prozyme 6, 60,000 units per mg of solid).
After 20 hours at room temperature, the solution was acidified to pH 2 and extracted with 3 volumes of diethyl ether. The aqueous phase was saved for subsequent workup. The ether phase was washed with two volumes of distilled water and then one volume of saturated sodium chloride, and then it was dried over MgSO4 and subsequently evaporated to dryness. The resolved ibuprofen product recovered was 930 mg of white powder, indicating 45% conversion of racemic ester to acid. The optical rotation was -0.580° (measured at c=1 in ethanol), indicating the R isomer of ibuprofen.
35 mg of protease Enzyme F, as the commercial preparation Prozyme 6, were added to the aqueous solution. The reaction flask was capped, and briefly shaken until all the enzyme had dissolved or dispersed. […] The resulting mixture was diluted with one volume of water and was extracted with diethyl ether (2 times 200 ml). The ether layers were combined and backwashed with water (2 times 200 ml), saturated NaCl solution (200 ml), and then dried over MgSO4.
In this control run, a 0.5M ester solution of (1) was prepared in 325 ml of 0.1M sodium phosphate buffer (pH 7.0). The reaction was started by adding 3 gm of the above enzyme (F). The pH was controlled at 7.0 with 8.22M sodium hydroxide. After 6.49 hours at 30 ° C., 6.63 ml of hydroxide were added, indicating 37.7% conversion. The reaction was allowed to continue overnight and, after 23.1 hours, a total of 7.2 ml of sodium hydroxide were added, indicating 40.9% conversion.

[6] = test system: lipase derived from Candida cylindracea (Genzyme, Enzyme G); test: Asymmetric hydrolysis in a multiphase membrane bioreactor, Enzyme G
Experimental: 3.0 grams of the lipase were dissolved in 500 mls of distilled water; this solution was recirculated in an ultrafiltration mode from the shell into the lumen and back to the reservoir for 30 minutes. The ultrafiltrate was then collected until the reservoir was empty, and methyl isobutyl ketone (MIBK) was then pumped into the shell and recirculated at 400-450 ml/min with a 5-7 psig shell pressure to remove any remaining enzyme solution from the shell.
A reactor was prepared as described in Example 6.2.2.5 (naproxen) using essentially the same mode of loading the enzyme, 3.0 grams of Candida lipase (Enzyme G, from Genzyme Corporation) were ultrafiltered from the shell into the lumen. The enzyme was then washed with 2-3 l of distilled water and 1 l of potassium phosphate buffer (0.10 M, pH 7.7). The module was then drained.
No organic solvent was required as the substrate is already a water-immiscible liquid. Phosphate buffer was immediately pumped into the lumen and recirculated at 400-450 ml/min.
The reaction was monitored by following acid production based on hydroxide titration data. […] The aqueous buffer was replaced after 76 minutes and acidified to pH 2.0 with concentrated HCl in the presence of about 200 ml of chloroform.

[7] = test system: Candida lipase (Sigma L-1754, Enzyme H); test: Asymmetric hydrolysis in a multiphase membrane bioreactor, Enzyme H; details: 210 gm neat ester
Experimental: The enzyme solution was recirculated from the shell side to the lumen side and back to the solution reservoir in an ultra-filtration mode. […] The procedure was completed in one hour.
After loading the enzyme to the reactor, recirculation of 210 gm. […] The recirculation rate was 400 ml/min and the average pressure on the shell compartment was kept at 6.5 psi by adjusting a throttling valve at the shell side exit. On the lumen side 1 liter of 0.05M K was recirculated at a rate of 400 ml/min. The pH of the aqueous reservoir was kept at 7.0 by addition of 1M NaOH. The reactor was run continuously for 6.8 days.
The reaction progress and rate were monitored by following the caustic consumption. […] The initial ester substrate to the reactor had no optical rotation.

[8] = 0.010 mol ester in 100 ml 0.2M sodium phosphate pH 7.8

SMILES: CC(C)Cc1ccc(C(C)C(=O)OCCCS(=O)(=O)O)cc1 (racemic) [Compound 3, Potassium Salt of 3-SulfopropylEster of 2-(4-Isobutylphenyl)propanoic Acid]
- % CONVERSION [1, 8]: 32.0%
- % e.e. ([1]; acid product, pH 7.8): 91.0%
- % CONVERSION [2, 8]: 12.1%
- % e.e. ([2]; acid product, pH 7.8): 88.0%
- % CONVERSION ([3]; 100 mg enzyme A, 10 mmol ester in 100 ml 0.2 M phosphate buffer pH 7.0, 20-22 C, 20 hours): 50.0%
- conversion of the racemic ester to acid ([3]; 1.00 gm enzyme A, about 1M ester, pH 7.0, room temperature, 23.9 hours, by NaOH titration): 29%

SMILES: CC(C)Cc1ccc(C(C)C(=O)OCCS(=O)(=O)O)cc1 (stereo not shown) [Compound 2, Sodium Salt of 2-Sulfoethyl Ester of 2-(4-Isobutylphenyl)propanoic Acid]
- % e.e. ([4]; 150 mg enzyme B, 125 ml, pH 7.0, 18 hours): 90.0%
- % e.e. ([3]; acid product, 150 mg enzyme A, 125 ml, pH 7.0, 18 hours): > 99%

SMILES: COc1ccc2cc(C(C)C(=O)OCC[N+](C)(C)C)ccc2c1 (stereo not shown) [Compound 11, Methyl Sulfate Salt of 2-(N,N,N-Trimethylammonium)ethyl Ester of 2-(6-Methoxy-2-naphthyl)propanoic Acid]
- % CONVERSION ([5]; 100 mg Prozyme 6 (F), 18 hours): 24.3%
- % e.e. ([5]; naproxen acid product, 100 mg Prozyme 6 (F), pH 7.0, 25 C, 18 hours): 34.0%

SMILES: COC(=O)C(C)c1ccc2cc(OC)ccc2c1 (stereo not shown) [Compound 18, Methyl Ester of 2-(6-Methoxy-2-naphthyl)propanoic Acid]
- average rate of hydrolysis, first 45 minutes ([6]; 0.75M ester in MIBK, 3.0 grams lipase in 0.85 m2 module, pH 8.50): 35 µmol/h

SMILES: CC(C)Cc1ccc(C(C)C(=O)OCC(F)(F)F)cc1 (stereo not shown) [Compound 19, 2,2,2-Trifluoroethyl Ester of 2-(4-Isobutylphenyl)propanoic Acid]
- average hydrolytic rate, first 60 minutes ([6]; neat liquid ester, 3.0 grams lipase, pH 7.7): 160 µmol/min
- average hydrolysis rate, next 76 hours ([6]; neat liquid ester, 3.0 grams lipase, pH 7.7, by titrimetry): 21 µmol/min
- conversion to acid ([6]; neat liquid ester, 3.0 grams lipase, pH 7.7, over the 76 hours): about 9.8%

SMILES: CCCCCCCCOC(=O)C(C)Cl (stereo not shown) [Compound 20, Octyl Ester of 2-Chloropropanoic Acid]
- rate of ester hydrolysis at the beginning of the experiment ([7]; 30 grams lipase loaded, pH 7.0): 186 µmol/min
- initial ester hydrolyzed at termination ([7]; pH 7.0, run 6.8 days): 41%
- rate of ester hydrolysis at the end of the experiment ([7]; pH 7.0, run 6.8 days): 25 µmol/min

Results, then the compound that gave them:

- % e.e. ([3]; acid product, 100 mg enzyme A, pH 7.0, 20-22 C, 20 hours): > 99%
SMILES: CC(C)Cc1ccc(C(C)C(=O)OCC[N+](C)(C)C)cc1 (racemic) [Compound 10, Iodide Salt of 2-(N,N,N-Trimethylammonium)ethyl Ester of 2-(4-Isobutylphenyl)propanoic Acid]

- % CONVERSION ([4]; 100 mg enzyme B, 10.0 mmol ester in 100 ml 0.2M buffer pH 7.0, 25 C, 18 hours): 26%
- % e.e. ([4]; 100 mg enzyme B, pH 7.0, 25 C, 18 hours): 10%
- % CONVERSION ([3]; 100 mg enzyme A, 10.0 mmol ester in 100 ml 0.2M buffer pH 7.0, 25 C, 18 hours): 53%
- % e.e. ([3]; acid product, 100 mg enzyme A, pH 7.0, 25 C, 18 hours): 3%
SMILES: CC(CSC(=O)c1ccccc1)C(=O)OCS(=O)(=O)O (racemic) [Compound 16, Potassium Salt of the Sulfomethyl Ester of (±)-S-3-Benzoylthio-2-methylpropanoic Acid]

- % CONVERSION ([4]; 100 mg enzyme B, 10 mmol ester in 100 ml 0.2 M phosphate buffer pH 7.0, 20-22 C, 20 hours): 20.0%
SMILES: CC(C)Cc1ccc(C(C)C(=O)OCCCCS(=O)(=O)O)cc1 (stereo not shown) [Compound 4, Potassium Salt of 4-Sulfobutyl Ester of 2-(4-Isobutylphenyl)propanoic Acid]

- % e.e. ([3]; naproxen acid product, 150 mg enzyme A, pH 7.8, 18 hours (Table 12)): 78.0%
SMILES: COc1ccc2cc(C(C)C(=O)OCCCS(=O)(=O)O)ccc2c1 (stereo not shown) [Compound 7, Potassium Salt of the 3-Sulfopropyl Ester of 2-(6-Methoxy-2-naphthyl)propanoic Acid]

- % e.e. ([3]; naproxen acid product, 150 mg enzyme A, pH 7.8 (Table 13)): 59.0%
SMILES: COc1ccc2cc(C(C)C(=O)OCCS(=O)(=O)O)ccc2c1 (stereo not shown) [Compound 8, Potassium Salt of 2-Sulfoethyl Ester of 2-(6-Methoxy-2-naphthyl) propanoic Acid]

- enantiomeric excess of S isomer of Naproxen (from unconverted ester hydrolyzed at pH 12) ([3]; 100 mg enzyme A, pH 7.5, 25 degrees, 16 hours, from rotation in CHCl3): 45.5%
SMILES: COc1ccc2cc(C(C)C(=O)OCS(=O)(=O)O)ccc2c1 (stereo not shown) [Compound 9, Sodium Salt of Sulfomethyl Ester of 2-(6-Methoxy-2-naphthyl)propanoic Acid]

- % CONVERSION ([5]; 100 mg Prozyme 6 (F), 18 hours): 34.0%
SMILES: COc1ccc2cc(C(C)C(=O)OCCC[N+](C)(C)C)ccc2c1 (stereo not shown) [Compound 12, Methyl Sulfate Salt of 3-(N,N,N-Trimethylammonium)propyl Ester of 2-(6-Methoxy-2-naphthyl)propanoic Acid]

- completion of reaction ([5]; 35 mg Prozyme 6 (F), 10 mmol ester in 100 ml 0.2M sodium phosphate pH 7.0, 30 C, 1 hour): 22.5%
SMILES: CC(Oc1ccc(Cl)cc1)C(=O)OCS(=O)(=O)O (stereo not shown) [Compound 17, Sodium Salt of the Sulfomethyl Ester of 2-(4-Chlorophenoxy)propanoic Acid]
